Test results taken from ChEMBL document CHEMBL1201861, “Genomics of Drug Sensitity in Cancer screening data, Wellcome Trust Sanger Institute”.

These compounds were tested on P30-OHK (assay: cells). Details: Homo sapiens, P30-OHK.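 Further: growth inhibition of the P30-OHK cell line, read out with a cell viability assay.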
Format: functional, cell-based, Homo sapiens
Description: SANGER: Inhibition of human P30-OHK cell growth in a cell viability assay.
In the case of `O=S(=O)(O)c1ccc2cc(/N=N/c3cc(S(=O)(=O)O)c4cccnc4c3O)ccc2c1`, the IC50 is reported as greater than 16 µM.

What follows are compounds tested on NCI-H1838 (assay: cells). Details: Homo sapiens, NCI-H1838.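 Further: growth inhibition of NCI-H1838 cells, determined with a cell viability readout.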
Format: functional, cell-based, Homo sapiens
Description: SANGER: Inhibition of human NCI-H1838 cell growth in a cell viability assay.
Work on `O=S(=O)(O)c1ccc2cc(/N=N/c3cc(S(=O)(=O)O)c4cccnc4c3O)ccc2c1` yielded an IC50 greater than 16 µM.

The compounds below were run on BV-173 (assay: cells). Details: Homo sapiens, BV-173.
Format: functional, cell-based, Homo sapiens
Description: SANGER: Inhibition of human BV-173 cell growth in a cell viability assay.
In the case of `O=S(=O)(O)c1ccc2cc(/N=N/c3cc(S(=O)(=O)O)c4cccnc4c3O)ccc2c1`, the IC50 is reported as greater than 16 µM.

What follows are compounds tested on HAL-01 (assay: cells). Details: Homo sapiens, HAL-01.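 Further: growth inhibition of human HAL-01 cells, read out with a cell viability assay.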
Format: functional, cell-based, Homo sapiens
Description: SANGER: Inhibition of human HAL-01 cell growth in a cell viability assay.
`O=S(=O)(O)c1ccc2cc(/N=N/c3cc(S(=O)(=O)O)c4cccnc4c3O)ccc2c1` showed an IC50 greater than 16 µM.

What follows are compounds tested on RPMI-8226 (assay: cells). Details: Homo sapiens, RPMI-8226.
Format: functional, cell-based, Homo sapiens
Description: SANGER: Inhibition of human RPMI-8226 cell growth in a cell viability assay.
Compound `O=S(=O)(O)c1ccc2cc(/N=N/c3cc(S(=O)(=O)O)c4cccnc4c3O)ccc2c1` has an IC50 greater than 16 µM.

Each compound was assayed on CW-2 (assay: cells). Details: Homo sapiens, CW-2.
Format: functional, cell-based, Homo sapiens
Description: SANGER: Inhibition of human CW-2 cell growth in a cell viability assay.
In the case of `O=S(=O)(O)c1ccc2cc(/N=N/c3cc(S(=O)(=O)O)c4cccnc4c3O)ccc2c1`, the IC50 is reported as greater than 16 µM.

The compounds below were run on D283 Med (assay: cells). Details: Homo sapiens, D283 Med.
Format: functional, cell-based, Homo sapiens
Description: SANGER: Inhibition of human D-283MED cell growth in a cell viability assay.
In the case of `O=S(=O)(O)c1ccc2cc(/N=N/c3cc(S(=O)(=O)O)c4cccnc4c3O)ccc2c1`, the IC50 is reported as greater than 16 µM.

These compounds were tested on ES7 (assay: cells). Details: Homo sapiens, ES7.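 Further: growth inhibition of cultured human ES7 cells, read out as cell viability.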
Format: functional, cell-based, Homo sapiens
Description: SANGER: Inhibition of human ES7 cell growth in a cell viability assay.
In the case of `O=S(=O)(O)c1ccc2cc(/N=N/c3cc(S(=O)(=O)O)c4cccnc4c3O)ccc2c1`, the IC50 is reported as greater than 16 µM.

What follows are compounds tested on TE-8 (assay: cells). Details: Homo sapiens, TE-8.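 Further: growth inhibition of TE-8 cells, measured with a cell viability readout.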
Format: functional, cell-based, Homo sapiens
Description: SANGER: Inhibition of human TE-8 cell growth in a cell viability assay.
Compound `O=S(=O)(O)c1ccc2cc(/N=N/c3cc(S(=O)(=O)O)c4cccnc4c3O)ccc2c1` has an IC50 greater than 16 µM.

The compounds below were run on NEC8 (assay: cells). Details: Homo sapiens, NEC8.
Format: functional, cell-based, Homo sapiens
Description: SANGER: Inhibition of human NEC8 cell growth in a cell viability assay.
With `O=S(=O)(O)c1ccc2cc(/N=N/c3cc(S(=O)(=O)O)c4cccnc4c3O)ccc2c1` the IC50 was greater than 16 µM.

Each compound was assayed on GCIY (assay: cells). Details: Homo sapiens, GCIY.
Format: functional, cell-based, Homo sapiens
Description: SANGER: Inhibition of human GCIY cell growth in a cell viability assay.
Compound `O=S(=O)(O)c1ccc2cc(/N=N/c3cc(S(=O)(=O)O)c4cccnc4c3O)ccc2c1` has an IC50 greater than 16 µM.

What follows are compounds tested on TE-12 (assay: cells). Details: Homo sapiens, TE-12.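 Further: growth inhibition of TE-12 cells, read out by a cell viability assay.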
Format: functional, cell-based, Homo sapiens
Description: SANGER: Inhibition of human TE-12 cell growth in a cell viability assay.
`O=S(=O)(O)c1ccc2cc(/N=N/c3cc(S(=O)(=O)O)c4cccnc4c3O)ccc2c1` showed an IC50 greater than 16 µM.

The compounds below were run on A101D (assay: cells). Details: Homo sapiens, A101D.
Format: functional, cell-based, Homo sapiens
Description: SANGER: Inhibition of human A101D cell growth in a cell viability assay.
In the case of `O=S(=O)(O)c1ccc2cc(/N=N/c3cc(S(=O)(=O)O)c4cccnc4c3O)ccc2c1`, the IC50 is reported as greater than 16 µM.

What follows are compounds tested on NCI-H1355 (assay: cells). Details: Homo sapiens, NCI-H1355.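 Further: growth inhibition of human NCI-H1355 cells, read out by a cell viability assay.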
Format: functional, cell-based, Homo sapiens
Description: SANGER: Inhibition of human NCI-H1355 cell growth in a cell viability assay.
`O=S(=O)(O)c1ccc2cc(/N=N/c3cc(S(=O)(=O)O)c4cccnc4c3O)ccc2c1` showed an IC50 greater than 16 µM.

These compounds were tested on LNCaP-Clone-FGC (assay: cells). Details: Homo sapiens, LNCaP-Clone-FGC.
Format: functional, cell-based, Homo sapiens
Description: SANGER: Inhibition of human LNCaP-Clone-FGC cell growth in a cell viability assay.
With `O=S(=O)(O)c1ccc2cc(/N=N/c3cc(S(=O)(=O)O)c4cccnc4c3O)ccc2c1` the IC50 was greater than 16 µM.

Each compound was assayed on U-87 MG (assay: cells). Details: Homo sapiens, U-87 MG.
Format: functional, cell-based, Homo sapiens, U-87MG ATCC
Description: SANGER: Inhibition of human U-87-MG cell growth in a cell viability assay.
`O=S(=O)(O)c1ccc2cc(/N=N/c3cc(S(=O)(=O)O)c4cccnc4c3O)ccc2c1` was tested, and the IC50 was greater than 16 µM.

These compounds were tested on ETK-1 (assay: cells). Details: Homo sapiens, ETK-1.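 Further: growth inhibition of human ETK-1 cells, read out with a cell viability assay.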
Format: functional, cell-based, Homo sapiens
Description: SANGER: Inhibition of human ETK-1 cell growth in a cell viability assay.
Work on `O=S(=O)(O)c1ccc2cc(/N=N/c3cc(S(=O)(=O)O)c4cccnc4c3O)ccc2c1` yielded an IC50 greater than 16 µM.

What follows are compounds tested on SF-268 (assay: cells). Details: Homo sapiens, SF-268.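 Further: growth inhibition of SF-268 cells determined with a cell viability assay.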
Format: functional, cell-based, Homo sapiens
Description: SANGER: Inhibition of human SF268 cell growth in a cell viability assay.
`O=S(=O)(O)c1ccc2cc(/N=N/c3cc(S(=O)(=O)O)c4cccnc4c3O)ccc2c1` was tested, and the IC50 was greater than 16 µM.

The compounds below were run on EOL1 (assay: cells). Details: Homo sapiens, EOL1.
Format: functional, cell-based, Homo sapiens
Description: SANGER: Inhibition of human EoL-1-cell cell growth in a cell viability assay.
With `O=S(=O)(O)c1ccc2cc(/N=N/c3cc(S(=O)(=O)O)c4cccnc4c3O)ccc2c1` the IC50 was greater than 16 µM.

What follows are compounds tested on MSTO-211H (assay: cells). Details: Homo sapiens, MSTO-211H.
Format: functional, cell-based, Homo sapiens
Description: SANGER: Inhibition of human MSTO-211H cell growth in a cell viability assay.
With `O=S(=O)(O)c1ccc2cc(/N=N/c3cc(S(=O)(=O)O)c4cccnc4c3O)ccc2c1` the IC50 was greater than 16 µM.

These compounds were tested on SK-N-DZ (assay: cells). Details: Homo sapiens, SK-N-DZ; read-out: IC50.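 Further: growth inhibition of the cancer cell line, read out through a viability assay.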
Format: functional, cell-based, Homo sapiens
Description: SANGER: Inhibition of human SK-N-DZ cell growth in a cell viability assay.
`O=S(=O)(O)c1ccc2cc(/N=N/c3cc(S(=O)(=O)O)c4cccnc4c3O)ccc2c1` gave an IC50 greater than 16 µM.

Each compound was assayed on KINGS-1 (assay: cells). Details: Homo sapiens, KINGS-1.
Format: functional, cell-based, Homo sapiens
Description: SANGER: Inhibition of human KINGS-1 cell growth in a cell viability assay.
For `O=S(=O)(O)c1ccc2cc(/N=N/c3cc(S(=O)(=O)O)c4cccnc4c3O)ccc2c1`, the IC50 was greater than 16 µM.

These compounds were tested on COLO-320-HSR (assay: cells). Details: Homo sapiens, COLO-320-HSR.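 Further: growth inhibition of COLO-320-HSR cells, determined with a cell viability assay.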
Format: functional, cell-based, Homo sapiens
Description: SANGER: Inhibition of human COLO-320-HSR cell growth in a cell viability assay.
Compound `O=S(=O)(O)c1ccc2cc(/N=N/c3cc(S(=O)(=O)O)c4cccnc4c3O)ccc2c1` has an IC50 greater than 16 µM.

These compounds were tested on HEL (assay: cells). Details: Homo sapiens, HEL.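 Further: growth inhibition of HEL cells, read out with a cell viability assay.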
Format: functional, cell-based, Homo sapiens
Description: SANGER: Inhibition of human HEL cell growth in a cell viability assay.
`O=S(=O)(O)c1ccc2cc(/N=N/c3cc(S(=O)(=O)O)c4cccnc4c3O)ccc2c1` showed an IC50 greater than 16 µM.

What follows are compounds tested on COLO-668 (assay: cells). Details: Homo sapiens, COLO-668.
Format: functional, cell-based, Homo sapiens
Description: SANGER: Inhibition of human COLO-668 cell growth in a cell viability assay.
Work on `O=S(=O)(O)c1ccc2cc(/N=N/c3cc(S(=O)(=O)O)c4cccnc4c3O)ccc2c1` yielded an IC50 greater than 16 µM.

What follows are compounds tested on EW-18 (assay: cells). Details: Homo sapiens, EW-18; read-out: IC50.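 Further: growth inhibition of EW-18 cells, read out by a cell viability assay.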
Format: functional, cell-based, Homo sapiens
Description: SANGER: Inhibition of human EW-18 cell growth in a cell viability assay.
Compound `O=S(=O)(O)c1ccc2cc(/N=N/c3cc(S(=O)(=O)O)c4cccnc4c3O)ccc2c1` has an IC50 greater than 16 µM.

These compounds were tested on NOMO-1 (assay: cells). Details: Homo sapiens, NOMO-1.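 Further: growth inhibition of human NOMO-1 cells measured by a cell viability assay.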
Format: functional, cell-based, Homo sapiens
Description: SANGER: Inhibition of human NOMO-1 cell growth in a cell viability assay.
`O=S(=O)(O)c1ccc2cc(/N=N/c3cc(S(=O)(=O)O)c4cccnc4c3O)ccc2c1` was tested, and the IC50 was greater than 16 µM.

Each compound was assayed on NCI-H69 (assay: cells). Details: Homo sapiens, NCI-H69.
Format: functional, cell-based, Homo sapiens
Description: SANGER: Inhibition of human NCI-H69 cell growth in a cell viability assay.
For `O=S(=O)(O)c1ccc2cc(/N=N/c3cc(S(=O)(=O)O)c4cccnc4c3O)ccc2c1`, the IC50 was greater than 16 µM.

What follows are compounds tested on COLO-829 (assay: cells). Details: Homo sapiens, COLO-829.
Format: functional, cell-based, Homo sapiens
Description: SANGER: Inhibition of human COLO-829 cell growth in a cell viability assay.
`O=S(=O)(O)c1ccc2cc(/N=N/c3cc(S(=O)(=O)O)c4cccnc4c3O)ccc2c1` was tested, and the IC50 was greater than 16 µM.

The compounds below were run on MFM-223 (assay: cells). Details: Homo sapiens, MFM-223.
Format: functional, cell-based, Homo sapiens
Description: SANGER: Inhibition of human MFM-223 cell growth in a cell viability assay.
For `O=S(=O)(O)c1ccc2cc(/N=N/c3cc(S(=O)(=O)O)c4cccnc4c3O)ccc2c1`, the IC50 was greater than 16 µM.

Each compound was assayed on A4-Fuk (assay: cells). Details: Homo sapiens, A4-Fuk.
Format: functional, cell-based, Homo sapiens
Description: SANGER: Inhibition of human A4-Fuk cell growth in a cell viability assay.
`O=S(=O)(O)c1ccc2cc(/N=N/c3cc(S(=O)(=O)O)c4cccnc4c3O)ccc2c1` gave an IC50 greater than 16 µM.

What follows are compounds tested on CTV-1 (assay: cells). Details: Homo sapiens, CTV-1.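 Further: growth inhibition of the cell line, read out with a cell viability assay.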
Format: functional, cell-based, Homo sapiens
Description: SANGER: Inhibition of human CTV-1 cell growth in a cell viability assay.
In the case of `O=S(=O)(O)c1ccc2cc(/N=N/c3cc(S(=O)(=O)O)c4cccnc4c3O)ccc2c1`, the IC50 is reported as greater than 16 µM.

What follows are compounds tested on SK-NEP-1 (assay: cells). Details: Homo sapiens, SK-NEP-1.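 Further: growth inhibition of human SK-NEP-1 cells, read out by a cell viability assay.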
Format: functional, cell-based, Homo sapiens
Description: SANGER: Inhibition of human SK-NEP-1 cell growth in a cell viability assay.
`O=S(=O)(O)c1ccc2cc(/N=N/c3cc(S(=O)(=O)O)c4cccnc4c3O)ccc2c1` showed an IC50 greater than 16 µM.

What follows are compounds tested on SW872 (assay: cells). Details: Homo sapiens, SW872.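 Further: growth inhibition of SW872 cells, read out by a viability assay.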
Format: functional, cell-based, Homo sapiens
Description: SANGER: Inhibition of human SW872 cell growth in a cell viability assay.
`O=S(=O)(O)c1ccc2cc(/N=N/c3cc(S(=O)(=O)O)c4cccnc4c3O)ccc2c1` gave an IC50 greater than 16 µM.

Each compound was assayed on COLO-800 (assay: cells). Details: Homo sapiens, COLO-800.
Format: functional, cell-based, Homo sapiens
Description: SANGER: Inhibition of human COLO-800 cell growth in a cell viability assay.
With `O=S(=O)(O)c1ccc2cc(/N=N/c3cc(S(=O)(=O)O)c4cccnc4c3O)ccc2c1` the IC50 was greater than 16 µM.

These compounds were tested on QIMR-WIL (assay: cells). Details: Homo sapiens, QIMR-WIL.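 Further: growth inhibition of QIMR-WIL cells, read out with a cell viability assay.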
Format: functional, cell-based, Homo sapiens
Description: SANGER: Inhibition of human QIMR-WIL cell growth in a cell viability assay.
`O=S(=O)(O)c1ccc2cc(/N=N/c3cc(S(=O)(=O)O)c4cccnc4c3O)ccc2c1` gave an IC50 greater than 16 µM.

What follows are compounds tested on HCC1187 (assay: cells). Details: Homo sapiens, HCC1187.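 Further: growth inhibition of HCC1187 cells, read out with a cell viability assay.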
Format: functional, cell-based, Homo sapiens
Description: SANGER: Inhibition of human HCC1187 cell growth in a cell viability assay.
`O=S(=O)(O)c1ccc2cc(/N=N/c3cc(S(=O)(=O)O)c4cccnc4c3O)ccc2c1` gave an IC50 greater than 16 µM.

The compounds below were run on SCH (assay: cells). Details: Homo sapiens, SCH.
Format: functional, cell-based, Homo sapiens
Description: SANGER: Inhibition of human SCH cell growth in a cell viability assay.
In the case of `O=S(=O)(O)c1ccc2cc(/N=N/c3cc(S(=O)(=O)O)c4cccnc4c3O)ccc2c1`, the IC50 is reported as greater than 16 µM.

What follows are compounds tested on NB10 (assay: cells). Details: Homo sapiens, NB10.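 Further: growth inhibition of NB10 cells, read out by a cell viability assay.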
Format: functional, cell-based, Homo sapiens
Description: SANGER: Inhibition of human NB10 cell growth in a cell viability assay.
`O=S(=O)(O)c1ccc2cc(/N=N/c3cc(S(=O)(=O)O)c4cccnc4c3O)ccc2c1` showed an IC50 greater than 16 µM.

Each compound was assayed on HCC2218 (assay: cells). Details: Homo sapiens, HCC2218.
Format: functional, cell-based, Homo sapiens
Description: SANGER: Inhibition of human HCC2218 cell growth in a cell viability assay.
Compound `O=S(=O)(O)c1ccc2cc(/N=N/c3cc(S(=O)(=O)O)c4cccnc4c3O)ccc2c1` has an IC50 greater than 16 µM.

Each compound was assayed on RH-1 (assay: cells). Details: Homo sapiens, RH-1.
Format: functional, cell-based, Homo sapiens
Description: SANGER: Inhibition of human RH-1 cell growth in a cell viability assay.
`O=S(=O)(O)c1ccc2cc(/N=N/c3cc(S(=O)(=O)O)c4cccnc4c3O)ccc2c1` gave an IC50 greater than 16 µM.

What follows are compounds tested on KNS-42 (assay: cells). Details: Homo sapiens.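 Further: growth inhibition of KNS-42 cells, read out with a cell viability assay.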
Format: functional, cell-based
Description: SANGER: Inhibition of human KNS-42 cell growth in a cell viability assay.
Work on `O=S(=O)(O)c1ccc2cc(/N=N/c3cc(S(=O)(=O)O)c4cccnc4c3O)ccc2c1` yielded an IC50 greater than 16 µM.

These compounds were tested on LB1047-RCC (assay: cells). Details: Homo sapiens, LB1047-RCC.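 Further: inhibition of cell growth, determined with a cell viability assay.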
Format: functional, cell-based, Homo sapiens
Description: SANGER: Inhibition of human LB1047-RCC cell growth in a cell viability assay.
Compound `O=S(=O)(O)c1ccc2cc(/N=N/c3cc(S(=O)(=O)O)c4cccnc4c3O)ccc2c1` has an IC50 greater than 16 µM.

Each compound was assayed on EKVX (assay: cells). Details: Homo sapiens, EKVX.
Format: functional, cell-based, Homo sapiens
Description: SANGER: Inhibition of human EKVX cell growth in a cell viability assay.
Compound `O=S(=O)(O)c1ccc2cc(/N=N/c3cc(S(=O)(=O)O)c4cccnc4c3O)ccc2c1` has an IC50 greater than 16 µM.

The compounds below were run on ATN-1 (assay: cells). Details: Homo sapiens, ATN-1.
Format: functional, cell-based, Homo sapiens
Description: SANGER: Inhibition of human ATN-1 cell growth in a cell viability assay.
For `O=S(=O)(O)c1ccc2cc(/N=N/c3cc(S(=O)(=O)O)c4cccnc4c3O)ccc2c1`, the IC50 was greater than 16 µM.

Each compound was assayed on K562 (assay: cells). Details: Homo sapiens, K562.
Format: functional, cell-based, Homo sapiens
Description: SANGER: Inhibition of human K-562 cell growth in a cell viability assay.
`O=S(=O)(O)c1ccc2cc(/N=N/c3cc(S(=O)(=O)O)c4cccnc4c3O)ccc2c1` gave an IC50 greater than 16 µM.

What follows are compounds tested on LU-139 (assay: cells). Details: Homo sapiens, LU-139.
Format: functional, cell-based, Homo sapiens
Description: SANGER: Inhibition of human LU-139 cell growth in a cell viability assay.
For `O=S(=O)(O)c1ccc2cc(/N=N/c3cc(S(=O)(=O)O)c4cccnc4c3O)ccc2c1`, the IC50 was greater than 16 µM.

What follows are compounds tested on CAS-1 (assay: cells). Details: Homo sapiens, CAS-1.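 Further: growth inhibition of CAS-1 cells, measured with a cell viability assay.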
Format: functional, cell-based, Homo sapiens
Description: SANGER: Inhibition of human CAS-1 cell growth in a cell viability assay.
`O=S(=O)(O)c1ccc2cc(/N=N/c3cc(S(=O)(=O)O)c4cccnc4c3O)ccc2c1` showed an IC50 greater than 16 µM.
